Measured values reported in patent publication US20120122843A1, “Compounds and Their Use for Treatment of Amyloid Beta-Related Diseases” (ASTRAZENECA AB, priority 2010, published 2012).

Legend:
Notch = experiment: Release and translocation of Notch intracellular domain into the nucleus, HEK/AENotch cells (NICD immunostaining, ImageXpress); assay type: cell-based, Human; settings: 3 μM Lactacystin, 4-6 h incubation, nucleus/cytosol NICD fluorescence ratio
Experimental: The level of activity of the compounds on release and translocation of Notch intracellular domain into the cell nucleus was tested using the following method:
Compounds were diluted in 100% DMSO and stored at […] prior to use. Human Embryonic Kidney cell line overexpressing Notchl-E-human-myc construct (referred to as HEK/AENotch) were cultured in T75 cm^2 or T225 cm^2 cell culture flasks using Dulbecco's Modified Eagles medium (DMEM) supplemented with […] glucose, Na-pyruvate and GlutaMAX with 10% FBS, 100 U/ml penicillin-streptomycin (PEST) respectively, 1× non-essential amino acids (NEAA), […] Hepes and 100 μg/ml Hygromycin. Cells at about 80% confluence were washed with PBS, detached from the flask bottom using 1× Trypsin/EDTA diluted in PBS, re-suspended in cell media and plated in 384-well plates at about 10000 cells/well, in 25 μL cell media. Optionally, cryo-preserved cells (frozen and stored at −140° C. in 90% cell media and 10% DMSO) were thawed, washed and plated as above. Next the cells were incubated for 15-24 h at 37° C. and 5% CO2, after which cell medium was replaced with fresh medium containing 3 μM Lactacystin and test compound diluted ×200 from prepared compound plate giving 0.5% final DMSO concentration, and the highest compound concentration typically 25 μM. Cells were then incubated 4-6 h with test compound before being fixed, washed and immunostained with NICD antibody (rabbit Notch 1 (C-20)). Image acquisition of cytosolic/membrane and nuclear fluorescence as well as subsequent analysis of the nucleus and cytosolic fluorescence ratio was carried out using ImageXpress. Potential cytotoxic effects of the compounds were usually assayed by analysis of nucleus area or cell number.

Aβ42 = Aβ42 release from HEK cells stably expressing APPswe (MSD electrochemiluminescence); assay type: cell-based, Human; settings: 4-6 h incubation with test compound, Aβ42 secreted to cell medium
Experimental: The level of activity of the compounds on Aβ formation was tested using the following method:
Compounds were diluted in 100% DMSO and stored at […] prior to use. Human Embryonic Kidney (HEK) cell line stably expressing APP with the Swedish mutation (APPswe) were cultured using Dulbecco's Modified Eagles medium (DMEM) supplied with […] glucose, Na-pyruvate and GlutaMAX with 10% FBS, 100 U/ml penicillin-streptomycin (PEST) respectively, 1× non-essential amino acids (NEAA), […] Hepes, 100 μg/ml Zeocine. Cells at about 80% confluence were washed with PBS, detached from culture flasks using 1× Trypsin/EDTA diluted in PBS, re-suspended in cell media and plated in 384-well poly-d-lysine coated cell culture plates at about 10000-15000 cells/well, in 25 μL cell media. Optionally, cryo-preserved cells (frozen and stored at −140° C. in 90% cell media and 10% DMSO) were thawed, washed and plated as above. Next the cells were incubated for 15-24 h at 37° C. and 5% CO2, after which cell medium was changed. Fresh medium containing test compound diluted ×200 from prepared compound plate was added to the cells before further incubation for 4-6 hours at 37° C. and 5% CO2. After incubation with test compound the amount of Aβ peptides, including Aβ42, Aβ40, Aβ39, Aβ38 and Aβ37, as well as total Aβ levels, secreted to cell medium was analyzed using the electrochemiluminescence assay technology from Meso Scale Discovery (MSD), in combination with specific antibodies raised against the different Aβ peptides. Aβ42, Aβ40 and Aβ38 antibodies were purchased from MSD and Aβ37 and Aβ39 were made in house. Total Aβ was measured using a combination of 6E10 and 4G8 anti Aβ antibodies from MSD. Potential cytotoxic effects of the compounds were usually assayed by measuring the ATP content (ViaLight) from cell lysate.

[1] = Homo sapiens, HEK293, HEK cells expressing APPswe

SMILES | IC50 (Aβ42; HEK cells expressing APPswe) | IC50 (Aβ42; [1]) | IC50 (Notch) | IC50 (Notch; Homo sapiens)
COc1nc(Nc2ccc3c(n2)OC(C2CC2)CN(C)C3C)ccc1-c1cnn(C)c1 (single isomer, unassigned) [Example 18, 2-Cyclopropyl-N-(6-methoxy-5-(1-methyl-1H-pyrazol-4-yl)pyridin-2-yl)-4,5-dimethyl-2,3,4,5-tetrahydropyrido[3,2-f][1,4]oxazepin-8-amine] | 0.037 µM |  | > 7.9 µM | 
COc1nc(Nc2ccc3c(n2)OC(CC(F)(F)F)CN(C)C3)ccc1-c1cc(C)ncn1 (stereo not shown) [Example 7, [6-Methoxy-5-(6-methyl-pyrimidin-4-yl)-pyridin-2-yl]-[6-methyl-8-(2,2,2-trifluoro-ethyl)-5,6,7,8-tetrahydro-9-oxa-1,6-diaza-benzocyclohepten-2-yl]-amine] |  | 0.135 µM |  | > 25 µM
COc1nc(Nc2cc(C)c3c(n2)OC(C2CCCO2)CN(C)C3)ccc1-c1cnn(C)c1 (single isomer, unassigned) [Example 25, N-(6-Methoxy-5-(1-methyl-1H-pyrazol-4-yl)pyridin-2-yl)-4,6-dimethyl-2-(tetrahydrofuran-2-yl)-2,3,4,5-tetrahydropyrido[3,2-f][1,4]oxazepin-8-amine] |  | 0.073 µM |  | > 7.9 µM
COc1nc(Nc2ccc3c(n2)OC(CC(F)(F)F)CN(C)C3)ccc1-c1cnn(C)c1 (stereo not shown) [Example 3, N-(6-Methoxy-5-(1-methyl-1H-pyrazol-4-yl)pyridin-2-yl)-4-methyl-2-(2,2,2-trifluoroethyl)-2,3,4,5-tetrahydropyrido[3,2-f][1,4]oxazepin-8-amine] |  | 0.017 µM |  | > 25 µM
COc1nc(Nc2cc(C)c3c(n2)OC(c2nc(C)cs2)CN(C)C3)ccc1-c1cnn(C)c1 (single isomer, unassigned) [Example 22, N-(6-Methoxy-5-(1-methyl-1H-pyrazol-4-yl)pyridin-2-yl)-4,6-dimethyl-2-(4-methylthiazol-2-yl)-2,3,4,5-tetrahydropyrido[3,2-f][1,4]oxazepin-8-amine] | 0.01 µM |  |  | 1.68 µM
COc1nc(Nc2ccc3c(n2)OC(c2ncc(C)s2)CN(C)C3)ccc1-c1cnn(C)c1 (stereo not shown) [Example 39, N-(6-Methoxy-5-(1-methyl-1H-pyrazol-4-yl)pyridin-2-yl)-4-methyl-2-(5-methylthiazol-2-yl)-2,3,4,5-tetrahydropyrido[3,2-f][1,4]oxazepin-8-amine] |  | 0.028 µM |  | > 25 µM
COc1nc(Nc2ccc3c(n2)OC(C2CC2)CN(C)C3C)ccc1-c1cnn(C)c1 (single isomer, unassigned) [Example 20, 2-Cyclopropyl-N-(6-methoxy-5-(1-methyl-1H-pyrazol-4-yl)pyridin-2-yl)-4,5-dimethyl-2,3,4,5-tetrahydropyrido[3,2-f][1,4]oxazepin-8-amine] | 0.091 µM |  | > 7.9 µM | 
COc1nc(Nc2ccc3c(n2)OC(CC(F)(F)F)CN(C)C3C)ccc1-c1cnn(C)c1 (single isomer, unassigned) [Example 36, N-(6-Methoxy-5-(1-methyl-1H-pyrazol-4-yl)pyridin-2-yl)-4,5-dimethyl-2-(2,2,2-trifluoroethyl)-2,3,4,5-tetrahydropyrido[3,2-f][1,4]oxazepin-8-amine] | 0.012 µM |  | > 25 µM | 
Cc1ncn(-c2ccc(Nc3ccc4c(n3)OC(c3cccc(Cl)c3)CN(C)C4)nc2)n1 (stereo not shown) [Example 23, 2-(3-Chlorophenyl)-4-methyl-N-(5-(3-methyl-1H-1,2,4-triazol-1-yl)pyridin-2-yl)-2,3,4,5-tetrahydropyrido[3,2-f][1,4]oxazepin-8-amine] |  | 0.055 µM |  | > 2.5 µM
Cc1cn(-c2ccc(Nc3ccc4c(n3)O[C@H](c3ccccc3)CN(C)C4)nc2)cn1 [Example 14, (R)-4-Methyl-N-(5-(4-methyl-1H-imidazol-1-yl)pyridin-2-yl)-2-phenyl-2,3,4,5-tetrahydropyrido[3,2-f][1,4]oxazepin-8-amine] |  | 0.024 µM |  | > 50 µM

Continued, in another order:

IC50 (Aβ42; HEK cells expressing APPswe) | IC50 (Aβ42; [1]) | SMILES | IC50 (Notch) | IC50 (Notch; Homo sapiens)
0.005 µM |  | COc1nc(Nc2ccc3c(n2)OC(CCC(F)(F)F)CN(C)C3)ccc1-c1cnn(C)c1 (single isomer, unassigned; (+)) [Example 57, (+)-N-[6-Methoxy-5-(1-methylpyrazol-4-yl)-2-pyridyl]-4-methyl-2-(3,3,3-trifluoropropyl)-3,5-dihydro-2H-pyrido[3,2-f][1,4]oxazepin-8-amine] | > 11.5 µM | 
0.017 µM |  | COc1nc(Nc2ccc3c(n2)OC(c2nc(C)cs2)C(C)N(C)C3)ccc1-n1cnc(C)c1 (single isomer, unassigned; (+)) [Example 60, (+)-N-(6-Methoxy-5-(4-methyl-1H-imidazol-1-yl)pyridin-2-yl)-3,4-dimethyl-2-(4-methylthiazol-2-yl)-2,3,4,5-tetrahydropyrido[3,2-f][1,4]oxazepin-8-amine] | > 25 µM | 
 | 0.046 µM | COc1nc(Nc2ccc3c(n2)OC(c2cc(C)ccn2)CN(C)C3)ccc1-c1cnn(C)c1 (stereo not shown) [Example 42, N-(6-Methoxy-5-(1-methyl-1H-pyrazol-4-yl)pyridin-2-yl)-4-methyl-2-(4-methylpyridin-2-yl)-2,3,4,5-tetrahydropyrido[3,2-f][1,4]oxazepin-8-amine] |  | > 25 µM
 | 0.098 µM | COc1nc(Nc2ccc3c(n2)O[C@H](c2ccccc2)CN(C)C3)ccc1-c1cn[nH]c1 [Example 56, (2R)—N-[6-Methoxy-5-(1H-pyrazol-4-yl)-2-pyridyl]-4-methyl-2-phenyl-3,5-dihydro-2H-pyrido[3,2-f][1,4]oxazepin-8-amine] |  | > 25 µM
0.038 µM |  | COc1nc(Nc2ccc3c(n2)OC(c2ncc(C)s2)CN(C)C3)ccc1-n1cnc(C)c1 (single isomer, unassigned; (+)) [Example 66, (+)-N-(6-Methoxy-5-(4-methyl-1H-imidazol-1-yl)pyridin-2-yl)-4-methyl-2-(5-methylthiazol-2-yl)-2,3,4,5-tetrahydropyrido[3,2-f][1,4]oxazepin-8-amine] | > 25 µM | 
0.011 µM |  | COc1nc(Nc2ccc3c(n2)O[C@H](c2ccc(F)cn2)CN(C)C3C)ccc1-n1cnc(C)c1 (single isomer, unassigned; (-)) [Example 53] | > 7.9 µM | 
 | 0.061 µM | Cc1cn(-c2ccc(Nc3ccc4c(n3)OC(CC(F)(F)F)CN(C)C4)nc2C#N)cn1 (stereo not shown) [Example 48] |  | > 25 µM
 | 0.009 µM | COc1nc(Nc2ccc3c(n2)OC(c2ncc(C)s2)CN(C)C3)ccc1-n1cnc(C)c1 (stereo not shown) [Example 40, N-(6-Methoxy-5-(4-methyl-1H-imidazol-1-yl)pyridin-2-yl)-4-methyl-2-(5-methylthiazol-2-yl)-2,3,4,5-tetrahydropyrido[3,2-f][1,4]oxazepin-8-amine] |  | 3.64 µM
0.018 µM |  | COc1nc(Nc2ccc3c(n2)OC(CCC(F)(F)F)CN(C)C3)ccc1-c1cnn(C)c1 (single isomer, unassigned; (-)) [Example 58, (−)-N-[6-Methoxy-5-(1-methylpyrazol-4-yl)-2-pyridyl]-4-methyl-2-(3,3,3-trifluoropropyl)-3,5-dihydro-2H-pyrido[3,2-f][1,4]oxazepin-8-amine] | > 25 µM | 
0.009 µM |  | COc1nc(Nc2ccc3c(n2)OC(CC(CF)CF)CN(C)C3)ccc1-n1cnc(C)c1 (single isomer, unassigned; (-)) [Example 68, (−)-[8-(3-Fluoro-2-fluoromethyl-propyl)-6-methyl-5,6,7,8-tetrahydro-9-oxa-1,6-diaza-benzocyclohepten-2-yl]-[6-methoxy-5-(4-methyl-imidazol-1-yl)-pyridin-2-yl]-amine] | > 25 µM | 
